In US11357825B2, “Means for treating cardiovascular disease” (Universitaetsklinikum Hamburg-Eppendorf, priority 2017, dated 2022):

Columns and labels:
β1-AR = β1-AR (Homo sapiens, UniProt P08588); conditions: HEK293 cells stably expressing β1-AR; pretreatment 20 min with 30 nM; ISO 0.1 nM
Text: Experimental data with HEK293 cells stably expressing β1-AR and the cAMP biosensor Epac1-camps.

[1] = tested on: adult rat ventricular cardiomyocytes; assay: cell contractility assay, edge detection method (IonOptix); format: cell-based; conditions: atenolol 100 nM, 20 min; 1 Hz pacing; with and without 10 nM isoproterenol
Protocol: FIG. 7. Experimental data for cardiomyocyte hypertrophy (A) and cell contractility (B) assays performed with freshly isolated adult rat ventricular cardiomyocytes (CM) using atenolol coated nanoparticles (Atenolol NP) and control nanoparticles.
Freshly isolated adult rat ventricular CMs were incubated for 20 min with atenolol (100 nM), atenolol coated or control nanoparticles (both at 30 nM) and cell contractility was measured using edge detection method (IonOptix) at 1 Hz pacing frequency with and without stimulation with 10 nM isoproterenol.

β1-AR, sequence (P08588 whole entry): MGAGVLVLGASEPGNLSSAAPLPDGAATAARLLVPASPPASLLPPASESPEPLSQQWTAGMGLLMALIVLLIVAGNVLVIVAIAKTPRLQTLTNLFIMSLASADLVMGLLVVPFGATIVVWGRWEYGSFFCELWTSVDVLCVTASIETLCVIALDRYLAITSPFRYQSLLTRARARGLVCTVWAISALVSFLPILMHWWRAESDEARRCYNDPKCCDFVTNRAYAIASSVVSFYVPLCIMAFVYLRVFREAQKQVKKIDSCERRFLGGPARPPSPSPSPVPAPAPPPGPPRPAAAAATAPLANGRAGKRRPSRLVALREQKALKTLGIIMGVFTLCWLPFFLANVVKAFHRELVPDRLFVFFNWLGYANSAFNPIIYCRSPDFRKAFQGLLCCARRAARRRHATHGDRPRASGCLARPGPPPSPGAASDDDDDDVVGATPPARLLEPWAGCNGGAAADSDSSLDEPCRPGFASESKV

With `CC(C)NCC(O)COc1ccc(CC(N)=O)cc1` (centres unmarked) [atenolol] the “inhibition of ISO-induced cAMP increase (CFP/YFP ratio)” value (β1-AR) was “efficacious in blocking β1-AR dependent cAMP synthesis” and the cell contractility [1] was “decrease cell contractility”.
